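Assay format: 96-well plates, 48-hour exposure. The concentration for full growth arrest is given as TGI.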
How the values were obtained:
Test in all cases: NCI anticancer screen, dose series, 48 h
NCI-H460 lung = test system: NCI-H460 lung
UO-31 renal = test system: UO-31 renal
M14 melanoma = test system: M14 melanoma
A549 NSCLC = test system: A549 NSCLC
MALME-3M melanoma = test system: MALME-3M melanoma
SF-268 CNS = test system: SF-268 CNS
IGROV1 ovarian = test system: IGROV1 ovarian
T-47D breast = test system: T-47D breast
HCT-15 colon = test system: HCT-15 colon
HT29 colon = test system: HT29 colon
SNB-19 CNS = test system: SNB-19 CNS
COLO 205 colon = test system: COLO 205 colon
HCT-116 colon = test system: HCT-116 colon
HOP-62 NSCLC = test system: HOP-62 NSCLC
CCRF-CEM leukemia = test system: CCRF-CEM leukemia
SK-MEL-5 melanoma = test system: SK-MEL-5 melanoma
MDA-N = test system: MDA-N
NCI-H226 lung = test system: NCI-H226 lung
BT-549 breast = test system: BT-549 breast
U251 CNS = test system: U251 CNS
SK-OV-3 ovarian = test system: SK-OV-3 ovarian
HOP-92 NSCLC = test system: HOP-92 NSCLC
SF-539 CNS = test system: SF-539 CNS
UACC-257 melanoma = test system: UACC-257 melanoma
RXF 393 renal = test system: RXF 393 renal
HCC-2998 colon = test system: HCC-2998 colon
HS 578T breast = test system: HS 578T breast
SR leukemia = test system: SR leukemia
NCI-H23 lung = test system: NCI-H23 lung
NCI-H522 lung = test system: NCI-H522 lung
ACHN renal = test system: ACHN renal
SF-295 CNS = test system: SF-295 CNS
DU-145 prostate = test system: DU-145 prostate
UACC-62 melanoma = test system: UACC-62 melanoma
MDA-MB-435 = test system: MDA-MB-435
SK-MEL-28 melanoma = test system: SK-MEL-28 melanoma
HL-60(TB) leukemia = test system: HL-60(TB) leukemia
LOX IMVI melanoma = test system: LOX IMVI melanoma
SK-MEL-2 melanoma = test system: SK-MEL-2 melanoma
PC-3 prostate = test system: PC-3 prostate
CAKI-1 renal = test system: CAKI-1 renal
SNB-75 CNS = test system: SNB-75 CNS
OVCAR-5 ovarian = test system: OVCAR-5 ovarian
EKVX NSCLC = test system: EKVX NSCLC
NCI/ADR-RES ovarian = test system: NCI/ADR-RES ovarian
TK-10 renal = test system: TK-10 renal
OVCAR-3 ovarian = test system: OVCAR-3 ovarian
A498 renal = test system: A498 renal
OVCAR-8 ovarian = test system: OVCAR-8 ovarian
RPMI-8226 leukemia = test system: RPMI-8226 leukemia
K-562 leukemia = test system: K-562 leukemia
786-0 renal = test system: 786-0 renal
MCF7 breast = test system: MCF7 breast
KM12 colon = test system: KM12 colon
MDA-MB-231 breast = test system: MDA-MB-231 breast
SN12C renal = test system: SN12C renal
SW-620 colon = test system: SW-620 colon
OVCAR-4 ovarian = test system: OVCAR-4 ovarian
MOLT-4 leukemia = test system: MOLT-4 leukemia

CC1OC(OC2C(O)CC(OC3C(O)CC(OC4CCC5(C)C(CCC6C5CCC5(C)C(C7=CC(=O)OC7)C(O)CC65O)C4)OC3C)OC2C)CC(O)C1O (stereo not drawn)
TGI (NCI-H460 lung): 0.532 µM | TGI (UO-31 renal): 1.15 µM | TGI (M14 melanoma): 1.99 µM | TGI (A549 NSCLC): 0.0706 µM | TGI (MALME-3M melanoma): 0.816 µM | TGI (SF-268 CNS): 0.607 µM | TGI (IGROV1 ovarian): 9.81 µM | TGI (T-47D breast): 4.72 µM | TGI (HCT-15 colon): 1.58 µM | TGI (HT29 colon): 0.886 µM | TGI (SNB-19 CNS): 3.49 µM | TGI (COLO 205 colon): 0.844 µM | TGI (HCT-116 colon): 0.576 µM | TGI (HOP-62 NSCLC): 2.66 µM | TGI (CCRF-CEM leukemia): > 100 µM | TGI (SK-MEL-5 melanoma): 0.533 µM | TGI (MDA-N): 1.11 µM | TGI (NCI-H226 lung): 2.14 µM | TGI (BT-549 breast): 0.339 µM | TGI (U251 CNS): 1.31 µM | TGI (SK-OV-3 ovarian): 1.31 µM | TGI (HOP-92 NSCLC): 1.85 µM | TGI (SF-539 CNS): 0.217 µM | TGI (UACC-257 melanoma): 2.07 µM | TGI (RXF 393 renal): 0.299 µM | TGI (HCC-2998 colon): 14.6 µM | TGI (HS 578T breast): > 100 µM | TGI (SR leukemia): > 100 µM | TGI (NCI-H23 lung): 0.313 µM | TGI (NCI-H522 lung): 0.157 µM | TGI (ACHN renal): 0.473 µM | TGI (SF-295 CNS): 0.809 µM | TGI (DU-145 prostate): 0.236 µM | TGI (UACC-62 melanoma): 1.18 µM | TGI (MDA-MB-435): 1.27 µM | TGI (SK-MEL-28 melanoma): 5.86 µM | TGI (HL-60(TB) leukemia): 1.23 µM | TGI (LOX IMVI melanoma): 0.235 µM | TGI (SK-MEL-2 melanoma): 1.55 µM | TGI (PC-3 prostate): 1.59 µM | TGI (CAKI-1 renal): 0.396 µM | TGI (SNB-75 CNS): 5.37 µM | TGI (OVCAR-5 ovarian): 5.62 µM | TGI (EKVX NSCLC): 0.63 µM | TGI (NCI/ADR-RES ovarian): 0.968 µM | TGI (TK-10 renal): 0.787 µM | TGI (OVCAR-3 ovarian): 0.497 µM | TGI (A498 renal): 0.908 µM | TGI (OVCAR-8 ovarian): 0.813 µM | TGI (RPMI-8226 leukemia): 1.52 µM | TGI (K-562 leukemia): > 100 µM

CC(=O)Oc1ccc2cc(Oc3cc(Cl)c(Cl)cc3Cl)c(=O)oc2c1
TGI (NCI-H460 lung): 37.8 µM | TGI (UO-31 renal): 25.9 µM | TGI (M14 melanoma): 35.2 µM | TGI (A549 NSCLC): 40.2 µM | TGI (MALME-3M melanoma): 31.3 µM | TGI (SF-268 CNS): > 100 µM | TGI (IGROV1 ovarian): 32.1 µM | TGI (T-47D breast): > 100 µM | TGI (HCT-15 colon): 26.3 µM | TGI (HT29 colon): 30.5 µM | TGI (SNB-19 CNS): 81.2 µM | TGI (HCT-116 colon): 28.1 µM | TGI (HOP-62 NSCLC): 36.2 µM | TGI (CCRF-CEM leukemia): 37.9 µM | TGI (SK-MEL-5 melanoma): 24.1 µM | TGI (MDA-N): 30.6 µM | TGI (NCI-H226 lung): 36.7 µM | TGI (BT-549 breast): 26.7 µM | TGI (U251 CNS): 32.5 µM | TGI (HOP-92 NSCLC): 48 µM | TGI (786-0 renal): 29 µM | TGI (SF-539 CNS): 31.2 µM | TGI (UACC-257 melanoma): 50.6 µM | TGI (RXF 393 renal): 31.5 µM | TGI (HCC-2998 colon): 30.8 µM | TGI (HS 578T breast): 65 µM | TGI (SR leukemia): 67.6 µM | TGI (MCF7 breast): 67.7 µM | TGI (NCI-H23 lung): 88.5 µM | TGI (NCI-H522 lung): 34.6 µM | TGI (ACHN renal): 50.5 µM | TGI (SF-295 CNS): 45.7 µM | TGI (DU-145 prostate): > 100 µM | TGI (SK-MEL-28 melanoma): 59.6 µM | TGI (HL-60(TB) leukemia): 68.8 µM | TGI (KM12 colon): 25.6 µM | TGI (MDA-MB-231 breast): 33.7 µM | TGI (SN12C renal): 28.1 µM | TGI (LOX IMVI melanoma): 28.9 µM | TGI (PC-3 prostate): 33 µM | TGI (CAKI-1 renal): 33.6 µM | TGI (SNB-75 CNS): 44.6 µM | TGI (OVCAR-5 ovarian): 71.2 µM | TGI (EKVX NSCLC): 71.9 µM | TGI (TK-10 renal): 74.5 µM | TGI (OVCAR-3 ovarian): 31.6 µM | TGI (SW-620 colon): 28 µM | TGI (A498 renal): 46.7 µM | TGI (OVCAR-8 ovarian): 34.7 µM | TGI (OVCAR-4 ovarian): > 100 µM | TGI (K-562 leukemia): 25.9 µM | TGI (MOLT-4 leukemia): 30.4 µM

— PubChem BioAssay (NCI)
